Eight molecules from patent EP0432442A1, “ACAT inhibitors” (priority 1989, dated 1991) can be followed below.

The target in assay [1] is acyl-CoA: cholesterol acyltransferase (ACAT). Description: in vitro ACAT inhibition: formation of radiolabeled cholesterol oleate from radiolabeled oleic acid in rabbit intestinal microsomes. The format is biochemical. To be noted: tissue preparation containing rabbit intestinal microsomes. As for the experimental part: The ability of representative compounds of the present invention to inhibit ACAT was measured using an in vitro test more fully described in F. J. Field and R. G. Salone, Biochemica et Biophysica 712:557-570 (1982). The test assesses the ability of a test compound to inhibit the acylation of cholesterol by oleic acid by measuring the amount of radiolabeled cholesterol oleate formed from radiolabeled oleic acid in a tissue preparation containing rabbit intestinal microsomes.
The data appear in Table 1 where they are expressed in IC50 values; i.e., the concentration of test compound required to inhibit 50% […] of the enzyme.

The test system of another assay is male Sprague-Dawley rats. Description: in vivo screen designated APCC: blood cholesterol in rats fed the PCC diet. To be noted: blood cholesterol vs vehicle (CMC/Tween); dosed at 4 PM, PCC diet with 1% or 0.5% cholic acid overnight, sacrificed at 8 AM; dose not given. The text has this:
In one in vivo screen designated APCC. male Sprague-Dawley rats (200 to 225 g) were randomly divided into treatment groups and dosed at 4 PM with either vehicle (CMCTween) or suspensions of compounds in vehicle. The normal chow diet was then replaced with the PCC diet with either 1% or 0.5^00 cholic acid, as indicated. The rats consumed this diet ad libitum during the night and were sacrificed at 8 AM to obtain blood samples for cholesterol analysis using standard procedures. Statistical differences between mean cholesterol values for the same vehicle were determined using analysis of variance followed by Fisher's least significant test.

One may read the IC50 as the point on the concentration scale where inhibition reaches its midpoint. A lower IC50 goes with inhibition by little substance. In the case of `CC(C)c1cccc(C(C)C)c1NC(=O)NCC(NC(=O)c1ccccc1)c1ccccc1` (racemic) [Example 4, (±)-N-[2-[[[[2,6-bis(1-methylethyl)phenyl]amino]carbonyl]amino]-1-phenylethyl]benzenecarboxamide], the IC50 in assay [1] came out at 530 nM. With `CC(C)c1cccc(C(C)C)c1NC(=O)NCC(NCc1ccccc1)c1ccccc1` (racemic) [Example 5, (±)-N-(2,6-bis(1-methylethyl)phenyl]-N'-[2-phenylmethylamino)-2-phenylethyl]urea], the IC50 in assay [1] came to 51 nM. For the same molecule, the “% Change (mg/dl)” value in the assay on male Sprague-Dawley rats is listed as -53%. Consider `CCCCCCCCCCCCNCC(CNC(=O)Nc1c(C(C)C)cccc1C(C)C)c1ccccc1` (racemic) [Example 11, (±)-N-[2,6-bis(1-methylethyl)phenyl]-N'-[3-dodecylamino-2-phenylpropyl]urea], for which, in the assay with male Sprague-Dawley rats, the “% Change (mg/dl)” value was -54%. For `CC(C)c1cccc(C(C)C)c1NC(=O)NCC(NC(=O)c1ccccn1)c1ccccc1` (racemic) [Example 12, (±)-N-[2-[[[[2,6-bis(1-methylethyl)phenyl]amino]carbonyl]amino]-1-phenethyl-2-pyridinylarnide], the midpoint of inhibition in assay [1], the IC50, lay at 80 nM. Same read-out and setting: next, `CCCCCCC(=O)NC(CNC(=O)Nc1c(C(C)C)cccc1C(C)C)c1ccccc1` (racemic) [Example 7, (±)-N-[2-[[[[2,6-bis(1-methylethyl)phenyl]amino]carbonyl]amino]-1-phenylethyl]heptanamide]: 150 nM; `COCCCCCC(=O)NC(CNC(=O)Nc1c(C(C)C)cccc1C(C)C)c1ccccc1` (racemic) [Example 10, (±)-N-[2-[[[[2,6-bis(1-methylethyl)phenyl]amino]carbonyl]amino]-1-phenylethyl]-6-methoxyhexanamide]: 390 nM. For the molecule `CC(C)c1cccc(C(C)C)c1NC(=O)NCC(NC(=O)CCCCCBr)c1ccccc1` (racemic) [Example 9, (±)-N-[2-[[[[2,6-bis(1-methylethy))phenyl]amino]carbonyl]amino]-1-phenylethyl]-6-bromohexanamide], the IC50 in assay [1] came out at 380 nM. For the same molecule, the “% Change (mg/dl)” value in the assay on male Sprague-Dawley rats is on record as -36%. Taken in the same sequence, the figures for `CCCCCCCNC(CNC(=O)Nc1c(C(C)C)cccc1C(C)C)c1ccccc1` (racemic) [Example 8, (±)-N-[2,6-bis(1-methylethyl)phenyl]-N'-[2-heptylamino-2-phenylethyl]urea] were 110 nM and -25%.
